Assay results reported in PubChem BioAssay (NCI).
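Assay format: 96-well plates, 48-hour exposure. Definition used: TGI = concentration required for complete inhibition of growth.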

What was measured:
Assay in all cases: NCI-60 cell line screen, 48 h
[1] = test system: SN12C renal
[2] = test system: DLD-1 colon
[3] = test system: RXF-631 renal
[4] = test system: LOX IMVI melanoma
[5] = test system: HOP-18 NSCLC
[6] = test system: M19-MEL melanoma
[7] = test system: A549 NSCLC
[8] = test system: SK-OV-3 ovarian
[9] = test system: CCRF-CEM leukemia
[10] = test system: RPMI-8226 leukemia
[11] = test system: SR leukemia
[12] = test system: SK-MEL-5 melanoma
[13] = test system: UO-31 renal
[14] = test system: COLO 205 colon
[15] = test system: HCT-15 colon
[16] = test system: OVCAR-5 ovarian
[17] = test system: MOLT-4 leukemia
[18] = test system: EKVX NSCLC
[19] = test system: KM12 colon
[20] = test system: UACC-257 melanoma
[21] = test system: SK-MEL-2 melanoma
[22] = test system: TK-10 renal
[23] = test system: CAKI-1 renal
[24] = test system: HOP-62 NSCLC
[25] = test system: M14 melanoma
[26] = test system: DMS 114 small cell lung
[27] = test system: SNB-19 CNS
[28] = test system: KM20L2 colon
[29] = test system: LXFL 529 NSCLC
[30] = test system: A498 renal
[31] = test system: ACHN renal
[32] = test system: K-562 leukemia
[33] = test system: DMS 273 small cell lung
[34] = test system: SNB-75 CNS
[35] = test system: 786-0 renal
[36] = test system: OVCAR-4 ovarian
[37] = test system: U251 CNS
[38] = test system: UACC-62 melanoma
[39] = test system: XF 498 CNS
[40] = test system: SW-620 colon
[41] = test system: SF-295 CNS
[42] = test system: OVCAR-8 ovarian
[43] = test system: OVCAR-3 ovarian
[44] = test system: HT29 colon
[45] = test system: RXF 393 renal
[46] = test system: HL-60(TB) leukemia
[47] = test system: SF-539 CNS
[48] = test system: SK-MEL-28 melanoma
[49] = test system: NCI-H226 lung
[50] = test system: HOP-92 NSCLC
[51] = test system: NCI-H460 lung
[52] = test system: NCI-H522 lung
[53] = test system: NCI-H23 lung
[54] = test system: HCT-116 colon
[55] = test system: HCC-2998 colon
[56] = test system: IGROV1 ovarian
[57] = test system: SNB-78 CNS
[58] = test system: MALME-3M melanoma
[59] = test system: SF-268 CNS

`O=C1CCC[C@]2(CCCC(=O)N2)C1` was tested, and the TGI [1] was over 100 µM, the TGI [2] was over 100 µM and the TGI [3] was over 100 µM. It also gave a TGI [4] of over 100 µM, a TGI [5] of over 100 µM and a TGI [6] of over 100 µM. For the same molecule, the TGI [7] was over 100 µM, the TGI [8] was over 100 µM and the TGI [9] was over 100 µM. The TGI [10] was over 100 µM, the TGI [11] was over 100 µM and the TGI [12] was over 100 µM. For the same molecule, the TGI [13] was over 100 µM, the TGI [14] was over 100 µM and the TGI [15] was over 100 µM. The TGI [16] was over 100 µM, the TGI [17] was over 100 µM and the TGI [18] was over 100 µM. It also gave a TGI [19] of over 100 µM, a TGI [20] of over 100 µM and a TGI [21] of over 100 µM. It also gave a TGI [22] of over 100 µM, a TGI [23] of over 100 µM and a TGI [24] of over 100 µM. It also gave a TGI [25] of over 100 µM, a TGI [26] of over 100 µM and a TGI [27] of over 100 µM. It also gave a TGI [28] of over 100 µM, a TGI [29] of over 100 µM and a TGI [30] of over 100 µM. It also gave a TGI [31] of over 100 µM, a TGI [32] of over 100 µM and a TGI [33] of over 100 µM. It also gave a TGI [34] of over 100 µM, a TGI [35] of over 100 µM and a TGI [36] of over 100 µM. The TGI [37] was over 100 µM, the TGI [38] was over 100 µM and the TGI [39] was over 100 µM. For the same molecule, the TGI [40] was over 100 µM, the TGI [41] was over 100 µM and the TGI [42] was over 100 µM. The TGI [43] was over 100 µM, the TGI [44] was over 100 µM and the TGI [45] was over 100 µM. For the same molecule, the TGI [46] was over 100 µM, the TGI [47] was over 100 µM and the TGI [48] was over 100 µM. It also gave a TGI [49] of over 100 µM, a TGI [50] of over 100 µM and a TGI [51] of over 100 µM. The TGI [52] was over 100 µM, the TGI [53] was over 100 µM and the TGI [54] was over 100 µM. It also gave a TGI [55] of over 100 µM, a TGI [56] of over 100 µM and a TGI [57] of over 100 µM. It also gave a TGI [58] of over 100 µM and a TGI [59] of over 100 µM.

For `Cc1cc(NS(=O)(=O)c2ccc(NC(=O)c3ccc(Cl)c4c(Nc5ccc(S(N)(=O)=O)cc5)c5ccccc5nc34)cc2)no1`, the TGI [1] was 58.6 µM, the TGI [2] was 52.4 µM and the TGI [3] was 50.2 µM. For the same molecule, the TGI [4] was 29.7 µM, the TGI [5] was 83 µM and the TGI [6] was 38.4 µM. For the same molecule, the TGI [7] was over 100 µM, the TGI [8] was 59.2 µM and the TGI [11] was 56.9 µM. The TGI [12] was 33.9 µM, the TGI [13] was 69.8 µM and the TGI [14] was 34.3 µM. For the same molecule, the TGI [15] was over 100 µM, the TGI [16] was 56.7 µM and the TGI [17] was 56.6 µM. For the same molecule, the TGI [18] was 89.1 µM, the TGI [19] was 37.8 µM and the TGI [20] was 50.9 µM. The TGI [22] was 86.2 µM, the TGI [23] was 40.5 µM and the TGI [24] was 41.1 µM. It also gave a TGI [25] of 65.7 µM, a TGI [26] of 39.7 µM and a TGI [27] of 30.2 µM. For the same molecule, the TGI [28] was 56.6 µM, the TGI [29] was 31.4 µM and the TGI [30] was 49.9 µM. For the same molecule, the TGI [31] was 73.8 µM, the TGI [32] was over 100 µM and the TGI [33] was 47.4 µM. The TGI [34] was 42.6 µM, the TGI [35] was 34.8 µM and the TGI [36] was 47 µM. The TGI [37] was 27 µM, the TGI [38] was 25.2 µM and the TGI [39] was 36 µM. For the same molecule, the TGI [40] was 38.9 µM, the TGI [41] was 70 µM and the TGI [42] was 36.6 µM. It also gave a TGI [43] of 37.7 µM, a TGI [44] of 44.7 µM and a TGI [45] of 31.3 µM. The TGI [46] was 65.6 µM, the TGI [47] was 39.2 µM and the TGI [48] was 42.3 µM. For the same molecule, the TGI [49] was 46 µM, the TGI [50] was 39.2 µM and the TGI [51] was 83.1 µM. The TGI [52] was 23.7 µM, the TGI [53] was 49.3 µM and the TGI [54] was 30.8 µM. For the same molecule, the TGI [55] was 33.2 µM, the TGI [56] was 44.2 µM and the TGI [57] was over 100 µM. It also gave a TGI [58] of 29.3 µM and a TGI [59] of 40.8 µM.

`O=C(O)CCC(=O)N1C/C(=C\c2ccccc2)C(=O)/C(=C/c2ccccc2)C1` was tested, and the TGI [1] was 3.52 µM, the TGI [2] was 5.06 µM and the TGI [3] was 11.2 µM. For the same molecule, the TGI [4] was 3.36 µM, the TGI [5] was 16.1 µM and the TGI [6] was 3.47 µM. The TGI [7] was 34.5 µM, the TGI [8] was 25.3 µM and the TGI [9] was 9.93 µM. The TGI [10] was 19.9 µM, the TGI [11] was 3.96 µM and the TGI [12] was 6.9 µM. It also gave a TGI [13] of 33 µM, a TGI [14] of 11.3 µM and a TGI [15] of 4.8 µM. It also gave a TGI [16] of 28.3 µM, a TGI [17] of 8.22 µM and a TGI [18] of 15.9 µM. For the same molecule, the TGI [19] was 3.34 µM, the TGI [20] was 6.53 µM and the TGI [21] was 4 µM. The TGI [22] was 21.2 µM, the TGI [23] was 14.9 µM and the TGI [24] was 31.3 µM. It also gave a TGI [25] of 5.39 µM, a TGI [26] of 4.73 µM and a TGI [27] of 13.8 µM. For the same molecule, the TGI [28] was 9.89 µM, the TGI [29] was 7.17 µM and the TGI [30] was 27.3 µM. The TGI [31] was 4 µM, the TGI [32] was over 24.6 µM and the TGI [33] was 4.97 µM. It also gave a TGI [34] of 19.1 µM, a TGI [35] of 5.75 µM and a TGI [36] of 4.86 µM. It also gave a TGI [37] of 3.29 µM, a TGI [38] of 2.63 µM and a TGI [39] of 6.56 µM. For the same molecule, the TGI [40] was 3.77 µM, the TGI [41] was 6.03 µM and the TGI [42] was 8.24 µM. The TGI [43] was 5.93 µM, the TGI [44] was 4.65 µM and the TGI [45] was 12.7 µM. It also gave a TGI [46] of 4.59 µM, a TGI [47] of 3.85 µM and a TGI [48] of 3.55 µM. For the same molecule, the TGI [49] was 34.3 µM, the TGI [50] was 30.8 µM and the TGI [51] was 25.2 µM. It also gave a TGI [52] of 3.38 µM, a TGI [53] of 12.7 µM and a TGI [54] of 3.16 µM. For the same molecule, the TGI [55] was 4.53 µM, the TGI [56] was 12.7 µM and the TGI [57] was 31.4 µM. The TGI [58] was 5.52 µM and the TGI [59] was 5.5 µM.
